Data on four compounds can be found in ChEMBL document CHEMBL1129774, “Antitumor agents 171. Cytotoxicities of lobatosides B, C, D, and E, cyclic bisdesmosides isolated from Actinostemma lobatum maxim” (1996).

Holding throughout (type): functional
Assay [1] relates to HCC 2998. Briefly: In vitro cytotoxicity against human colon cancer HCC2998 cell line.
The subject of assay [2] is SK-MEL-28. Briefly: In vitro cytotoxicity against human melanoma SK-MEL-28 cancer cell line.
In assay [3] the test system is MDA-MB-435. Briefly: In vitro cytotoxicity against human […] MDA-MB-435 cell line.
The subject of assay [4] is SF-295. Briefly: In vitro cytotoxicity against human CNS cancer SF-295 cell line.
Assay [5] deals with SK-MEL-5. Briefly: In vitro cytotoxicity against human melanoma SK-MEL-5 cancer cell line.
Assay [6] relates to UO-31. Briefly: In vitro cytotoxicity against human renal cancer UO-31 cell line.
Assay [7] relates to HL-60. Briefly: In vitro cytotoxicity against human leukemia HL-60(TB) cancer cell line.
Assay [8] relates to PC-3. Briefly: In vitro cytotoxicity against human prostate cancer PC-3 cell line.
Assay [9] concerns OVCAR-5. Briefly: In vitro cytotoxicity against human ovarian cancer OVCAR-5 cell line.
In assay [10] the test system is A549. Briefly: In vitro cytotoxicity against human Non-small cell lung cancer A549/ATCC cell line.

Where “and” joins values, the source holds several entries; their conditions need not be identical. Equal values may be shown once.

The term GI50 denotes the concentration at which growth is held to half of that of the control. A high value points to lower sensitivity of the cells. Regarding `C[C@@H]1O[C@H]2OC3[C@@H](OC[C@H](O)[C@@H]3O)OC(=O)[C@@]34CC[C@@H]5C(=CC[C@H]6[C@@]5(C)CC[C@H]5C(C)(C)[C@@H](O[C@@H]7O[C@H](CO)[C@@H](O)[C@H](O)[C@H]7O[C@@H]7O[C@H](CO)[C@@H](O)[C@H](O)[C@H]7OC(=O)CC(C)(O)CC(=O)O[C@@H]1[C@@H](O)[C@H]2O)[C@@H](O)C[C@]65C)[C@@H]3CC(C)(C)CC4` (stereo partly specified), the GI50 was 1.15 µM in assay [1]; 1.32 µM in assay [1] (Homo sapiens, HCC 2998); 1.51 µM in assay [2]; 1.58 µM in assay [3]; 1.78 µM in assay [4]; 1.2 µM in assay [5]. The GI50 was 1.23 µM in assay [6]; 1.41 µM in assay [7]; 1.38 µM in [8]; 1.62 µM in [9]; 1.32 µM in [10].
On to `C[C@@H]1O[C@H]2O[C@H]3[C@@H](OC[C@H](O)[C@@H]3O)OC(=O)[C@@]34CCC5C(=CC[C@@H]6[C@@]7(C)C[C@H](O)[C@H](O[C@@H]8O[C@H](CO)[C@@H](O)[C@H](O)[C@H]8O[C@@H]8O[C@H](CO)[C@H](O)[C@H](O)[C@H]8OC(=O)CC(C)(O)CC(=O)O[C@@H]1[C@@H](O[C@@H]1O[C@H](CO)[C@@H](O)[C@H](O)[C@H]1O)[C@H]2O)C(C)(C)[C@@H]7CC[C@@]56C)[C@@H]3CC(C)(C)CC4` (stereo partly specified), for which the concentration for 50% growth inhibition (GI50) in assay [1] is 1.41 µM and 0.36 µM; in assay [2], 1.29 µM; in assay [3], 1.45 µM; in [4], 1.51 µM; in assay [5], 0.14 µM; in [6], 1.62 µM. In addition, the concentration for 50% growth inhibition (GI50) in [7] was 1.45 µM; in assay [8], 1.95 µM; in assay [9], 2 µM; in assay [10], 0.14 µM.
For the compound `C[C@@H]1O[C@H]2O[C@H]3[C@@H](OC[C@H](O)[C@@H]3O)OC(=O)[C@@]34CCC5C(=CC[C@@H]6[C@@]7(C)C[C@H](O)[C@H](O[C@@H]8O[C@H](CO)[C@@H](O)[C@H](O)[C@H]8O[C@H]8OC[C@H](OC(=O)CC(C)(O)CC(=O)O[C@@H]1[C@@H](O[C@@H]1O[C@H](CO)[C@@H](O)[C@H](O)[C@H]1O)[C@H]2O)C(O)[C@H]8O)C(C)(C)[C@@H]7CC[C@@]56C)[C@@H]3CC(C)(C)CC4` (stereo partly specified), the concentration for 50% growth inhibition (GI50) in [1] was 2.45 µM and 9.33 µM; in assay [2], 1.94 µM; in assay [3] it was 2.45 µM; in [4] it was 4.07 µM; in assay [5], 11.4 µM; in [6] it was 4.47 µM. Also, the 50% growth inhibitory concentration (GI50) in [7] stood at 1.82 µM; in assay [8] it was 7.94 µM; in assay [9] it was 8.91 µM; in assay [10] it was 3.89 µM.
Regarding `C[C@@H]1O[C@H]2O[C@H]3[C@@H](OC[C@H](O)[C@@H]3O)OC(=O)[C@@]34CC[C@@H]5C(=CC[C@H]6[C@@]5(C)CC[C@H]5C(C)(C)[C@@H](O[C@@H]7O[C@H](CO)[C@@H](O)[C@H](O)[C@H]7O[C@H]7OC[C@H](OC(=O)CC(C)(O)CC(=O)O[C@@H]1[C@@H](O)[C@H]2O)[C@H](O)[C@H]7O)[C@@H](O)C[C@]65C)[C@@H]3CC(C)(C)CC4` (stereo partly specified), the GI50 in assay [1] was 2.4 µM and 8.91 µM; in [2], 1.94 µM; in assay [3], 5.89 µM; in assay [4], 3.39 µM; in assay [5], 4.17 µM; in assay [6], 6.03 µM. In addition, the GI50 in assay [7] is 1.78 µM; in assay [8], 2.19 µM; in assay [9] it was 1.32 µM; in assay [10], 2.24 µM.
